Measurements published in PMC12090182, “Repurposing of the RIPK1-Selective Benzo[1,4]oxazepin-4-one Scaffold for the Development of a Type III LIMK1/2 Inhibitor” (ACS Chemical Biology, 2025).

Key:
Test in all cases: biochemical
Format in all cases: binding
[1] = target: 468 kinases including some pathogenic mutants (Homo sapiens, UniProt Q9UBF8); conditions: PIK4CB (Entrez PI4KB), 100 nM; read-out: Percent Control
[2] = target: 468 kinases including some pathogenic mutants (Homo sapiens, UniProt P12931); conditions: SRC (Entrez SRC), 1000 nM; read-out: Percent Control
Chain of 468 kinases including some pathogenic mutants (Homo sapiens, UniProt P12931) (P12931 whole entry, change not shown): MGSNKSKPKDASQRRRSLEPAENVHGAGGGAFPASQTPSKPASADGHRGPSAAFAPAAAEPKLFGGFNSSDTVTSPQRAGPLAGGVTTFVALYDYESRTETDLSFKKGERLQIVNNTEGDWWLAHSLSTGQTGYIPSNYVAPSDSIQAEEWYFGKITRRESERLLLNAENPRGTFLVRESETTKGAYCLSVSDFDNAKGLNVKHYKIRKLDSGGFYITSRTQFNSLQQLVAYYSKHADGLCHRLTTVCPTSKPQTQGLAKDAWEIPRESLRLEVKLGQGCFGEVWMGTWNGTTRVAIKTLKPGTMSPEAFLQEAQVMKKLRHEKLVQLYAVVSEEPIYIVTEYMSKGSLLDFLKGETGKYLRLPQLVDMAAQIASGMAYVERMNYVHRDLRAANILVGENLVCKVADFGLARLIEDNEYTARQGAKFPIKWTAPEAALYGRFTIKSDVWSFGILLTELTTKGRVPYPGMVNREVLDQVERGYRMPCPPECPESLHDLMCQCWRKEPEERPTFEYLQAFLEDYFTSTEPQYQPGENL

[3] = target: 468 kinases including some pathogenic mutants (Homo sapiens, UniProt P07333); conditions: CSF1R-autoinhibited (Entrez CSF1R), 100 nM; read-out: Percent Control
[4] = target: 468 kinases including some pathogenic mutants (Homo sapiens, UniProt Q7KZI7); conditions: MARK2 (Entrez MARK2), 100 nM; read-out: Percent Control
[5] = target: 468 kinases including some pathogenic mutants (Homo sapiens, UniProt P41240); conditions: CSK (Entrez CSK), 100 nM; read-out: Percent Control
[6] = target: 468 kinases including some pathogenic mutants (Homo sapiens, UniProt Q9NSY1); conditions: BIKE (Entrez BMP2K), 100 nM; read-out: Percent Control
[7] = target: 468 kinases including some pathogenic mutants (Homo sapiens, UniProt Q96PY6); conditions: NEK1 (Entrez NEK1), 1000 nM; read-out: Percent Control
[8] = target: 468 kinases including some pathogenic mutants (Homo sapiens, UniProt Q16513); conditions: PKN2 (Entrez PKN2), 1000 nM; read-out: Percent Control
[9] = target: 468 kinases including some pathogenic mutants (Homo sapiens, UniProt P36507); conditions: MEK2 (Entrez MAP2K2), 1000 nM; read-out: Percent Control
Chain of 468 kinases including some pathogenic mutants (Homo sapiens, UniProt P36507) (P36507 whole entry, change not shown): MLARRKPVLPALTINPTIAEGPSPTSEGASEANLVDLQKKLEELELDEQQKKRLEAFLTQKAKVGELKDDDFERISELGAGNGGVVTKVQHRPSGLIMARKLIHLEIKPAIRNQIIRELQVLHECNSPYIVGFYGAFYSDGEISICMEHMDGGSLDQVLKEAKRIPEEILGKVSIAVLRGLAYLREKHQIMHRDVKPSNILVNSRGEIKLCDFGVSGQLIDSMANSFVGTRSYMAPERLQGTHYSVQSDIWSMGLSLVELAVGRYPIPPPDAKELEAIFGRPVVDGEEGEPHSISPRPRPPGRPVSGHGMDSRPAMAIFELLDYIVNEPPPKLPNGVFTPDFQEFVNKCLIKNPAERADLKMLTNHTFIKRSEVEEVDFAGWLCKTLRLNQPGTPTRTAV

[10] = target: 468 kinases including some pathogenic mutants (Homo sapiens, UniProt P24941); conditions: CDK2 (Entrez CDK2), 100 nM; read-out: Percent Control
[11] = target: 468 kinases including some pathogenic mutants (Homo sapiens, UniProt P51812); conditions: read-out: Percent Control
Chain of 468 kinases including some pathogenic mutants (Homo sapiens, UniProt P51812) (P51812 whole entry, change not shown): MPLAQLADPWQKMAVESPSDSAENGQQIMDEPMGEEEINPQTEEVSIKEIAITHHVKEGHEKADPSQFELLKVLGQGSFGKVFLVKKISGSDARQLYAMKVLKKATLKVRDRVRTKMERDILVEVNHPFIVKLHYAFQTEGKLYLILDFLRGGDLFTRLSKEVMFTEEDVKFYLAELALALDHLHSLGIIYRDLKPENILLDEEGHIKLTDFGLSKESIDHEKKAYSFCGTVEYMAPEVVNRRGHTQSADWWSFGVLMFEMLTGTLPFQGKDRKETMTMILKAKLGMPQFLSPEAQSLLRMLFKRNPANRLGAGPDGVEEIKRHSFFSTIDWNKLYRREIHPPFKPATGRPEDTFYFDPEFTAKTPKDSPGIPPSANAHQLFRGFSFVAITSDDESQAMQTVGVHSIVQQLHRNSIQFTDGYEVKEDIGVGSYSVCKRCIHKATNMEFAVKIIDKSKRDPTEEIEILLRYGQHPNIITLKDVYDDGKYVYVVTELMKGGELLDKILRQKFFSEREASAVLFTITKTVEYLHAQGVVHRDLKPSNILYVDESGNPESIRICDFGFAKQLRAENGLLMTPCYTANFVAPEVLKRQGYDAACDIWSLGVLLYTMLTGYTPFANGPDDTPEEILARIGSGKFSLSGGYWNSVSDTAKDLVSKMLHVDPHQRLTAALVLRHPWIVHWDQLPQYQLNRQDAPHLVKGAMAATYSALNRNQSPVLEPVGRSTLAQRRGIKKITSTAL

[12] = target: 468 kinases including some pathogenic mutants (Homo sapiens, UniProt O15530); conditions: PDPK1 (Entrez PDPK1), 100 nM; read-out: Percent Control
[13] = target: 468 kinases including some pathogenic mutants (Homo sapiens, UniProt P42336, E545A); conditions: read-out: Percent Control
[14] = target: 468 kinases including some pathogenic mutants (Homo sapiens, UniProt P19525); conditions: PRKR (Entrez EIF2AK2), 1000 nM; read-out: Percent Control
[15] = target: 468 kinases including some pathogenic mutants (Homo sapiens, UniProt P49840); conditions: GSK3A (Entrez GSK3A), 100 nM; read-out: Percent Control
[16] = target: 468 kinases including some pathogenic mutants (Homo sapiens, UniProt O00141); conditions: SGK (Entrez SGK1), 1000 nM; read-out: Percent Control
Chain of 468 kinases including some pathogenic mutants (Homo sapiens, UniProt O00141) (O00141 whole entry, change not shown): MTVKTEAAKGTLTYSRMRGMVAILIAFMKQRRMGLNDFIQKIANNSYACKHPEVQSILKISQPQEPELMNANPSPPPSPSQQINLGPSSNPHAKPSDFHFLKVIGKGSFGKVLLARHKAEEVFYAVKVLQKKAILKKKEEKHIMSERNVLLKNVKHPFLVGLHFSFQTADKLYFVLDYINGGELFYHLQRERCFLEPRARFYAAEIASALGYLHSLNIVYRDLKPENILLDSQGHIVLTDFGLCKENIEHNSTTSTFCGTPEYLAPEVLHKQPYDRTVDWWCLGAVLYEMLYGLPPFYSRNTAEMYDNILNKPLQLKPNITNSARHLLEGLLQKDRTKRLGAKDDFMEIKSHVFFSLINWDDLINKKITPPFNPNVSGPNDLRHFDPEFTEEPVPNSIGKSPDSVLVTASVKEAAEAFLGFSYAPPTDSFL

[17] = target: 468 kinases including some pathogenic mutants (Homo sapiens, UniProt Q02779); conditions: MLK2 (Entrez MAP3K10), 100 nM; read-out: Percent Control
[18] = target: 468 kinases including some pathogenic mutants (Homo sapiens, UniProt Q16566); conditions: CAMK4 (Entrez CAMK4), 100 nM; read-out: Percent Control
[19] = target: 468 kinases including some pathogenic mutants (Homo sapiens, UniProt Q8N752); conditions: CSNK1A1L (Entrez CSNK1A1L), 100 nM; read-out: Percent Control
[20] = target: 468 kinases including some pathogenic mutants (Homo sapiens, UniProt P10721, V559D/V654A); conditions: read-out: Percent Control
Chain of 468 kinases including some pathogenic mutants (Homo sapiens, UniProt P10721, V559D/V654A) (P10721 26-976 V559D/V654A): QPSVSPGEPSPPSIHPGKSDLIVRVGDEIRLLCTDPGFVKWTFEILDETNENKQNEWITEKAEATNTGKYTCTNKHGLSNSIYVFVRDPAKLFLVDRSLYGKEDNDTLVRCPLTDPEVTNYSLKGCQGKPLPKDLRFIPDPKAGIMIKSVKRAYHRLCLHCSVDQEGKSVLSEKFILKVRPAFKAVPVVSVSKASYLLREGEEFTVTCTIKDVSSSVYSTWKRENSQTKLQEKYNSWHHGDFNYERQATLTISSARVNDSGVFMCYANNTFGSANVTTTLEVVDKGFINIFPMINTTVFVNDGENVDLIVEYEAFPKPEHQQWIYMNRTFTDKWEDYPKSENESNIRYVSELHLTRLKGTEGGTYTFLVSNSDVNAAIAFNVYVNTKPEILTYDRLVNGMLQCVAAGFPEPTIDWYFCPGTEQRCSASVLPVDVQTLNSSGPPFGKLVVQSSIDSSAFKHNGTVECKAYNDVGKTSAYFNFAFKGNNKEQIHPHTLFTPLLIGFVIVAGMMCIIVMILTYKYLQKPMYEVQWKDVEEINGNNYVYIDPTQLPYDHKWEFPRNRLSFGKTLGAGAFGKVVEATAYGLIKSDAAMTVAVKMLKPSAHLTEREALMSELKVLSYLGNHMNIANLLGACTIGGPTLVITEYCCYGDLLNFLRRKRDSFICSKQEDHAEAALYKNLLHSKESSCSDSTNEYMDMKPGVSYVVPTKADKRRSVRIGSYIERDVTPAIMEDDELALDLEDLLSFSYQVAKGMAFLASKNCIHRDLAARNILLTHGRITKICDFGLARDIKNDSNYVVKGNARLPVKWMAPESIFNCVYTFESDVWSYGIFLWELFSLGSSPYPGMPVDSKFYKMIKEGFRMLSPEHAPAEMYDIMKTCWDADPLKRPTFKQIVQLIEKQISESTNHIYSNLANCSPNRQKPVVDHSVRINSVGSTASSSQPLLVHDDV

[21] = target: 468 kinases including some pathogenic mutants (Homo sapiens, UniProt Q6PHR2); conditions: ULK3 (Entrez ULK3), 100 nM; read-out: Percent Control
[22] = target: 468 kinases including some pathogenic mutants (Homo sapiens, UniProt Q9H422); conditions: HIPK3 (Entrez HIPK3), 100 nM; read-out: Percent Control
[23] = target: 468 kinases including some pathogenic mutants (Homo sapiens, UniProt Q9NRP7); conditions: STK36 (Entrez STK36), 100 nM; read-out: Percent Control
[24] = target: 468 kinases including some pathogenic mutants (Homo sapiens, UniProt Q8TD19); conditions: NEK9 (Entrez NEK9), 100 nM; read-out: Percent Control
[25] = target: 468 kinases including some pathogenic mutants (Homo sapiens, UniProt P37023); conditions: ACVRL1 (Entrez ACVRL1), 100 nM; read-out: Percent Control
[26] = target: 468 kinases including some pathogenic mutants (Homo sapiens, UniProt P35626); conditions: GRK3 (Entrez ADRBK2), 100 nM; read-out: Percent Control
[27] = target: 468 kinases including some pathogenic mutants (Homo sapiens, UniProt Q8IYT8); conditions: ULK2 (Entrez ULK2), 1000 nM; read-out: Percent Control
Chain of 468 kinases including some pathogenic mutants (Homo sapiens, UniProt Q8IYT8) (Q8IYT8 whole entry, change not shown): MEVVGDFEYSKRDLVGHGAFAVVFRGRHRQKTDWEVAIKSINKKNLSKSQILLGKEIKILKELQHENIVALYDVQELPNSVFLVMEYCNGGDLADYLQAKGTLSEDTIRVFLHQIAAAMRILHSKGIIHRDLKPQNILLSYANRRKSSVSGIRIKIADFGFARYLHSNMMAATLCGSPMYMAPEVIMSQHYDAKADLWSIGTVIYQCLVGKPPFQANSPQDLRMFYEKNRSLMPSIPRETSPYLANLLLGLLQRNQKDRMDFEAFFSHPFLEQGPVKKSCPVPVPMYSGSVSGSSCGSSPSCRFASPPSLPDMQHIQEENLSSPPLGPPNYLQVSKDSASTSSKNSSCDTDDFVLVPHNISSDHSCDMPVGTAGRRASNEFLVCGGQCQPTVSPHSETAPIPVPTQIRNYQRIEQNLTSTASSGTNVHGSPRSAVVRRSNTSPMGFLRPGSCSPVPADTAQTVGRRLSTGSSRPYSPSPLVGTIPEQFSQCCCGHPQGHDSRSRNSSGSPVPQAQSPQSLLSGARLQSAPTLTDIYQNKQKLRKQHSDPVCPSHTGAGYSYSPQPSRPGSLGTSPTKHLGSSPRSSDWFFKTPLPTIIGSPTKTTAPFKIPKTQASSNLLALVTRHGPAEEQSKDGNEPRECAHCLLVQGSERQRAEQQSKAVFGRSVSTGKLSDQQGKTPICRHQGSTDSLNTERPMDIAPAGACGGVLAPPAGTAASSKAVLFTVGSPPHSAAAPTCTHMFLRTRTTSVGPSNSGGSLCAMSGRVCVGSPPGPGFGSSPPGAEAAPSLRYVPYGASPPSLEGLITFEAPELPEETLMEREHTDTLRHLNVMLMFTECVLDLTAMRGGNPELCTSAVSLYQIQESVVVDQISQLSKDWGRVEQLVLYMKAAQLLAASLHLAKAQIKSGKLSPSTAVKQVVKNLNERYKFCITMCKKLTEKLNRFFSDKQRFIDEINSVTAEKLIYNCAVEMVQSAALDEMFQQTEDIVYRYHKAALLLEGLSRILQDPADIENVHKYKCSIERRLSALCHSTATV

[28] = target: 468 kinases including some pathogenic mutants (Homo sapiens, UniProt Q05655); conditions: PRKCD (Entrez PRKCD), 1000 nM; read-out: Percent Control

Chain of 468 kinases including some pathogenic mutants (Homo sapiens, UniProt Q9UBF8) (Q9UBF8 whole entry, change not shown): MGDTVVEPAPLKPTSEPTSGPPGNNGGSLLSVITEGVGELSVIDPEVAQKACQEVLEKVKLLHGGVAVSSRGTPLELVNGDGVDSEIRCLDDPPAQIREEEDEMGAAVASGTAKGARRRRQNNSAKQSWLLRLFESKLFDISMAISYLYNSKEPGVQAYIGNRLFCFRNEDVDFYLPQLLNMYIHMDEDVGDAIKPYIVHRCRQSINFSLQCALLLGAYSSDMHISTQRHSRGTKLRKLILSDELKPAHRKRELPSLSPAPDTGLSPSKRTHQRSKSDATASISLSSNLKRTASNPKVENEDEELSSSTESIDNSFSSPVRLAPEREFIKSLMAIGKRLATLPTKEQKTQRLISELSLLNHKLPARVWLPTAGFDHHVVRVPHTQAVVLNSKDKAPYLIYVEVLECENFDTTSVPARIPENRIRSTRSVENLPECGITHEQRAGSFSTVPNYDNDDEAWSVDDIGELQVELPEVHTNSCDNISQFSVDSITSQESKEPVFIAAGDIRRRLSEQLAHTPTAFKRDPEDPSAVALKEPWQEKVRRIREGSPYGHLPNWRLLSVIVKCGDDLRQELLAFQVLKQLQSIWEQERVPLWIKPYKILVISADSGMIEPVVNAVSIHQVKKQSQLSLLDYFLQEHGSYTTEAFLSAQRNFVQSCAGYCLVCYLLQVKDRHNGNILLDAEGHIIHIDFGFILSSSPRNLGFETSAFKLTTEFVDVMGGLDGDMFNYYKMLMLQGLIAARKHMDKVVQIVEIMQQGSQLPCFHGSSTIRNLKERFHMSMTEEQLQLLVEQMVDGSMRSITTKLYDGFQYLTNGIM

Structure (SMILES): CN1C(=O)[C@@H](N2CCc3c(nn(Cc4ccccc4)c3C(N)=O)C2=O)COc2cc(Cl)ccc21 [Compound 10, (S)-2-benzyl-6-(8-chloro-5-methyl-4-oxo-2,3,4,5-tetrahydrobenzo[b][1,4]oxazepin-3-yl)-7-oxo-4,5,6,7-tetrahydro-2H-pyrazolo[3,4-c]pyridine-3-carboxamide]
- remaining activity at 0.1 µM [1]: 94%
- remaining activity at 1 µM [2]: 100%
- remaining activity at 0.1 µM [3]: 80%
- remaining activity at 0.1 µM [4]: 78%
- remaining activity at 0.1 µM [5]: 83%
- remaining activity at 0.1 µM [6]: 67%
- remaining activity at 1 µM [7]: 100%
- remaining activity at 1 µM [8]: 100%
- remaining activity at 1 µM [9]: 100%
- remaining activity at 0.1 µM [10]: 83%
- remaining activity at 1 µM ([11]; RSK2(Kin.Dom.1-N-terminal) (Entrez RPS6KA3), 1000 nM): 100%
- remaining activity at 0.1 µM ([11]; RSK2(Kin.Dom.2-C-terminal) (Entrez RPS6KA3), 100 nM): 74%
- remaining activity at 0.1 µM [12]: 100%
- remaining activity at 1 µM [13]: 100%
- remaining activity at 1 µM [14]: 100%
- remaining activity at 0.1 µM [15]: 100%
- remaining activity at 1 µM [16]: 100%
- remaining activity at 0.1 µM [17]: 64%
- remaining activity at 0.1 µM [18]: 76%
- remaining activity at 0.1 µM [19]: 86%
- remaining activity at 0.1 µM [20]: 82%
- remaining activity at 0.1 µM [21]: 100%
- remaining activity at 0.1 µM [22]: 77%
- remaining activity at 0.1 µM [23]: 100%
- remaining activity at 0.1 µM [24]: 88%
- remaining activity at 0.1 µM [25]: 73%
- remaining activity at 0.1 µM [26]: 98%
- remaining activity at 1 µM [27]: 100%
- remaining activity at 1 µM [28]: 100%
